{
  "source": "paper PMC2626591",
  "about": "“Phage display-derived inhibitor of the essential cell wall biosynthesis enzyme MurF” (BMC Biochemistry, 2008)",
  "key": {"P. aeruginosa MurF [1]": {"target": "T1, P. aeruginosa MurF (Pseudomonas aeruginosa, UniProt Q9EY48)", "T1 construct": "made in house", "T1 sequence (Q9EY48 entry or part of it)": "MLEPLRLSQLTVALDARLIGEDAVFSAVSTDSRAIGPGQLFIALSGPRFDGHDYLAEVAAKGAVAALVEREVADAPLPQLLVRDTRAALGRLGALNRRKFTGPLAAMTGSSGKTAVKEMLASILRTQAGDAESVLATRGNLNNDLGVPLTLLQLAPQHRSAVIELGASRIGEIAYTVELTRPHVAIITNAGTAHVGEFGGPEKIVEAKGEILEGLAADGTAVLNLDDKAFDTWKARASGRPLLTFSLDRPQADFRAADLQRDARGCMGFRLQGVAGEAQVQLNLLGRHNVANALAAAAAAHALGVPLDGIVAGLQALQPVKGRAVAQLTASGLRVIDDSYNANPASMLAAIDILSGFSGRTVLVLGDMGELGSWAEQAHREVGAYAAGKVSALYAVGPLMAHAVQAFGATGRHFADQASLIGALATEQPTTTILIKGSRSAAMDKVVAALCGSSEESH", "assay": "MurF kinetics with respect to D-Ala-D-Ala, spectrophotometric (Lanzetta reagent) ATPase assay", "format": "biochemical", "description": "(§1) The ATPase activity of P. aeruginosa MurF was quantified by a colorimetric assay that measures the release of nanomoles of inorganic phosphate using the Lanzetta reagent. The reaction mixture (100 μl), held at room temperature, contained 40 nM of purified MurF from a fresh aliquot, 1 mM ATP, 100 μM UDP-MurNAc-Ala-Glu-meso-A2pm and 5 mM D-Ala-D-Ala in buffer C (100 mM Tris-HCl pH 8.6, 40 mM KCl, 500 mM NaCl, 1 mg/ml bovine serum albumin and 10 mM MgCl2). Reaction time was 15 min before adding 800 μl of the Lanzetta reagent. After an additional 5 min for colour development, 100 μl of 34% (w/v) sodium citrate was added to stop the reaction. The optical density at 660 nm was immediately measured with a Cary spectrophotometer (Varian, Mississauga, Ontario, Canada). The amount of inorganic phosphate released by MurF was determined by comparison to the linear portion of a phosphate standard curve with a minimum R^2 value of 0.99. The phosphate content of each component in the reaction was subtracted from the total phosphate measured, negative controls were done without enzyme or substrate, and assays were done in triplicate. Different concentrations of each substrate and NaCl were tested to determine optimal conditions for the study of the activity of MurFp1.\nThe maximal specific activity, the catalytic constant (kcat), the Michaelis-Menten constant (Km) and the enzyme efficiency (kcat/Km) were determined for MurF with respect to D-Ala-D-Ala. Kinetic parameters were determined by nonlinear regression analysis with a square matrix of enzyme velocities following the Michaelis-Menten equations using the Enzyme Kinetics Module version 1 of SigmaPlot version 8."}, "P. aeruginosa MurF [2]": {"target": "T1, P. aeruginosa MurF", "assay": "MurF inhibition by MurFp1, spectrophotometric (Lanzetta reagent) ATPase assay", "format": "biochemical", "description": "as §1\nMurFp1 was synthesized and purified as previously described. Peptide purity (> 95%) was analyzed by HPLC and molecular mass (1424.68 daltons) was confirmed by MALDI-TOF mass spectroscopy. […]\nInhibition of MurF enzymatic activity by MurFp1 was measured by the spectrophotometric assay described above. […] The effect of non-specific peptides was analysed on MurF enzymatic activity, with and without UDP-MurNAc-Ala-Glu-A2pm in the pre-incubation step. […]\nKinetic data were fitted to the appropriate model equations using the Sigmaplot Enzyme Kinetics Module. Steady-state inhibition kinetic parameters were determined by nonlinear regression analysis using the least squares method as a reference to ensure accurate dataset fitting and to generate error estimates for each individual observation. […]"}, "MurF": {"tested_on": "MurF", "conditions": "12-mer phage library, elution with glycine-HCl, 1 mM ATP or 1 mM D-Ala-D-Ala; ten phages sequenced per elution condition; in words", "experimental": "Phage display screening was performed with the PH.D.-12 phage library (New England Biolabs, Mississauga, Ontario, Canada). […] Phages encoding selected peptides were eluted at the end of the third round using 100 μl of 0.2 M glycine-HCl (pH 2.2) [17], and 100 μl of 1 mM ATP or 1 mM D-Ala-D-Ala for 30 min. The DNA of ten phages was prepared and sequenced with a -96 gIII primer (New England Biolabs) for each elution condition [23]."}},
  "note": "Ends that are not written are not given here.",
  "data": [
    {"substance": "D-Alanyl-D-Alanine [D-Ala-D-Ala]", "values": [
      {"measurement": "Km", "setting": "P. aeruginosa MurF [1]; MurF, with respect to D-Ala-D-Ala, pH 8.6, room temperature", "value": "115 ± 10", "unit": "µM"},
      {"measurement": "ligations of D-Ala-D-Ala per MurF active site (kcat)", "setting": "P. aeruginosa MurF [1]; ligation to UDP-MurNAc-Ala-Glu-meso-A2pm, from kcat", "value": "about 100 per min"},
      {"measurement": "kcat/Km", "setting": "P. aeruginosa MurF [1]; with respect to D-Ala-D-Ala, pH 8.6, room temperature", "value": "14200 ± 2500", "unit": "M⁻¹ s⁻¹"}
    ]},
    {"substance": "TMGFTAPRFPHY [MurFp1]", "values": [
      {"measurement": "inhibition at 2000 µM", "setting": "P. aeruginosa MurF [2]; 2 mM MurFp1, 30-minute pre-incubation of MurF with MurFp1, no substrate in pre-incubation", "value": 50, "unit": "%"},
      {"measurement": "IC50", "setting": "P. aeruginosa MurF [2]; 30 min pre-incubation with MurF, MurFp1 and UDP-MurNAc-Ala-Glu-meso-A2pm, 40 nM MurF, pH 8.6, room temperature, 15 min reaction, OD 660 nm, assays in triplicate", "value": "250 ± 10", "unit": "µM"},
      {"measurement": "effect on Km for D-Ala-D-Ala", "setting": "P. aeruginosa MurF [2]; each MurFp1 concentration used, 30 min pre-incubation with UDP-MurNAc-Ala-Glu-A2pm, in words", "value": "remained almost the same"}
    ]},
    {"substance": "VSANRHLGGNLP", "values": [
      {"measurement": "recovery in third round of bio-panning", "setting": "MurF", "value": "recovered once by both the ATP and D-Ala-D-Ala elutions"}
    ]}
  ]
}
